Data published in the supplement of paper PMC10307832.

Assays:
Test in all cases: relative viability (nuclei count vs DMSO), 5 days (fraction); higher = more cells survive
[1] = system: 201T
Summary of the method: (§1)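 Lung cancer cell lines in 1536-well plates got either a single drug or a fixed anchor-drug dose together with five library-drug doses (not always all listed) in √10 steps, by pin tool, on the day after seeding. Nuclei were counted after 5 days, and relative viability is the treated-to-vehicle ratio of nuclei counts. Values are medians of duplicate plates.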

[2] = system: A-427
Summary of the method: as §1

[3] = system: COR-L23
Summary of the method: as §1

[4] = system: HARA
Summary of the method: as §1

[5] = system: HCC-78
Summary of the method: as §1

[6] = system: LCLC-103H
Summary of the method: as §1

[7] = system: LCLC-97TM1
Summary of the method: as §1

[8] = system: LK-2
Summary of the method: as §1

[9] = system: LOU-NH91
Summary of the method: as §1

[10] = system: LXF-289
Summary of the method: as §1

[11] = system: NCI-H1650
Summary of the method: as §1

[12] = system: NCI-H1651
Summary of the method: as §1

[13] = system: NCI-H1793
Summary of the method: as §1

[14] = system: NCI-H2347
Summary of the method: as §1

[15] = system: NCI-H23
Summary of the method: as §1

[16] = system: NCI-H2405
Summary of the method: as §1

[17] = system: NCI-H520
Summary of the method: as §1

[18] = system: NCI-H522
Summary of the method: as §1

[19] = system: NCI-H647
Summary of the method: as §1

[20] = system: NCI-H838
Summary of the method: as §1

[21] = system: PC-3 [JPC-3]
Summary of the method: as §1

[22] = system: RERF-LC-KJ
Summary of the method: as §1

[23] = system: UMC-11
Summary of the method: as §1

**Q.** How did the relative viability ([1]; first compound 0.02 µM) turn out when `CN1CCN(CCOc2cc(OC3CCOCC3)c3c(Nc4c(Cl)ccc5c4OCO5)ncnc3c2)CC1` [Saracatinib] + COc1cccc2cc(-c3nc([C@H]4CC[C@H](C(=O)O)CC4)n4ncnc(N)c34)[nH]c12 [OSI-027] (partner 0.5 µM) was run?
**A.** 0.725

**Q.** What about the relative viability ([1]; first compound 0.2 µM) of the same molecule?
**A.** 0.53

**Q.** What about the relative viability ([1]; first compound 0.6325 µM) of the same molecule?
**A.** 0.752

**Q.** What about the relative viability ([1]; first compound 2 µM) of the same molecule?
**A.** 0.445

**Q.** And the relative viability ([2]; first compound 0.02 µM)?
**A.** 0.506

**Q.** And the relative viability ([2]; first compound 0.2 µM)?
**A.** 0.409

**Q.** And the relative viability ([2]; first compound 0.6325 µM)?
**A.** 0.445

**Q.** What about the relative viability ([2]; first compound 2 µM) of the same molecule?
**A.** 0.493

**Q.** What about the relative viability ([3]; first compound 0.02 µM) of the same molecule?
**A.** 0.698

**Q.** And the relative viability ([3]; first compound 0.2 µM)?
**A.** 0.684

**Q.** And the relative viability ([3]; first compound 0.6325 µM)?
**A.** 0.746

**Q.** And the relative viability ([3]; first compound 2 µM)?
**A.** 0.641

**Q.** And the relative viability ([4]; first compound 0.02 µM)?
**A.** 0.544

**Q.** And the relative viability ([4]; first compound 0.2 µM)?
**A.** 0.263

**Q.** What about the relative viability ([4]; first compound 0.6325 µM) of the same molecule?
**A.** 0.483

**Q.** And the relative viability ([4]; first compound 2 µM)?
**A.** 0.205

**Q.** And the relative viability ([5]; first compound 0.02 µM)?
**A.** 0.426

**Q.** And the relative viability ([5]; first compound 0.6325 µM)?
**A.** 0.379

**Q.** And the relative viability ([5]; first compound 2 µM)?
**A.** 0.317

**Q.** And the relative viability ([6]; first compound 0.02 µM)?
**A.** 0.481

**Q.** What about the relative viability ([6]; first compound 0.2 µM) of the same molecule?
**A.** 0.427

**Q.** What about the relative viability ([6]; first compound 0.6325 µM) of the same molecule?
**A.** 0.505

**Q.** What about the relative viability ([6]; first compound 2 µM) of the same molecule?
**A.** 0.459

**Q.** What about the relative viability ([7]; first compound 0.02 µM) of the same molecule?
**A.** 0.696

**Q.** What about the relative viability ([7]; first compound 0.2 µM) of the same molecule?
**A.** 0.221

**Q.** And the relative viability ([7]; first compound 0.6325 µM)?
**A.** 0.7

**Q.** And the relative viability ([7]; first compound 2 µM)?
**A.** 0.505

**Q.** What about the relative viability ([8]; first compound 0.02 µM) of the same molecule?
**A.** 0.218

**Q.** And the relative viability ([8]; first compound 0.2 µM)?
**A.** 0.165

**Q.** What about the relative viability ([8]; first compound 0.6325 µM) of the same molecule?
**A.** 0.161

**Q.** What about the relative viability ([8]; first compound 2 µM) of the same molecule?
**A.** 0.151

**Q.** And the relative viability ([9]; first compound 0.02 µM)?
**A.** 0.756

**Q.** And the relative viability ([9]; first compound 0.2 µM)?
**A.** 0.556

**Q.** What about the relative viability ([9]; first compound 0.6325 µM) of the same molecule?
**A.** 0.544

**Q.** And the relative viability ([9]; first compound 2 µM)?
**A.** 0.413

**Q.** And the relative viability ([10]; first compound 0.02 µM)?
**A.** 0.765

**Q.** And the relative viability ([10]; first compound 0.2 µM)?
**A.** 0.735

**Q.** And the relative viability ([10]; first compound 0.6325 µM)?
**A.** 0.744

**Q.** And the relative viability ([10]; first compound 2 µM)?
**A.** 0.677

**Q.** What about the relative viability ([11]; first compound 0.02 µM) of the same molecule?
**A.** 0.611

**Q.** And the relative viability ([11]; first compound 0.2 µM)?
**A.** 0.396

**Q.** What about the relative viability ([11]; first compound 0.6325 µM) of the same molecule?
**A.** 0.524

**Q.** And the relative viability ([11]; first compound 2 µM)?
**A.** 0.254

**Q.** What about the relative viability ([12]; first compound 0.02 µM) of the same molecule?
**A.** 0.694

**Q.** And the relative viability ([12]; first compound 0.2 µM)?
**A.** 0.657

**Q.** What about the relative viability ([12]; first compound 0.6325 µM) of the same molecule?
**A.** 0.81

**Q.** And the relative viability ([12]; first compound 2 µM)?
**A.** 0.485

**Q.** What about the relative viability ([13]; first compound 0.02 µM) of the same molecule?
**A.** 0.303

**Q.** And the relative viability ([13]; first compound 0.6325 µM)?
**A.** 0.312

**Q.** And the relative viability ([13]; first compound 2 µM)?
**A.** 0.253

**Q.** What about the relative viability ([14]; first compound 0.02 µM) of the same molecule?
**A.** 0.348

**Q.** And the relative viability ([14]; first compound 0.2 µM)?
**A.** 0.373

**Q.** And the relative viability ([14]; first compound 0.6325 µM)?
**A.** 0.406

**Q.** And the relative viability ([14]; first compound 2 µM)?
**A.** 0.306

**Q.** What about the relative viability ([15]; first compound 0.02 µM) of the same molecule?
**A.** 0.649

**Q.** What about the relative viability ([15]; first compound 0.2 µM) of the same molecule?
**A.** 0.425

**Q.** What about the relative viability ([15]; first compound 0.6325 µM) of the same molecule?
**A.** 0.659

**Q.** And the relative viability ([15]; first compound 2 µM)?
**A.** 0.503

**Q.** What about the relative viability ([16]; first compound 0.02 µM) of the same molecule?
**A.** 0.647

**Q.** And the relative viability ([16]; first compound 0.2 µM)?
**A.** 0.62

**Q.** And the relative viability ([16]; first compound 0.6325 µM)?
**A.** 0.649

**Q.** And the relative viability ([16]; first compound 2 µM)?
**A.** 0.38

**Q.** What about the relative viability ([17]; first compound 0.02 µM) of the same molecule?
**A.** 0.191

**Q.** What about the relative viability ([17]; first compound 0.6325 µM) of the same molecule?
**A.** 0.262

**Q.** And the relative viability ([17]; first compound 2 µM)?
**A.** 0.176

**Q.** And the relative viability ([18]; first compound 0.02 µM)?
**A.** 0.703

**Q.** What about the relative viability ([18]; first compound 0.6325 µM) of the same molecule?
**A.** 0.692

**Q.** What about the relative viability ([18]; first compound 2 µM) of the same molecule?
**A.** 0.683

**Q.** What about the relative viability ([19]; first compound 0.02 µM) of the same molecule?
**A.** 0.584

**Q.** And the relative viability ([19]; first compound 0.2 µM)?
**A.** 0.65

**Q.** And the relative viability ([19]; first compound 0.6325 µM)?
**A.** 0.637

**Q.** And the relative viability ([19]; first compound 2 µM)?
**A.** 0.381

**Q.** And the relative viability ([20]; first compound 0.02 µM)?
**A.** 0.348

**Q.** What about the relative viability ([20]; first compound 0.2 µM) of the same molecule?
**A.** 0.302

**Q.** What about the relative viability ([20]; first compound 0.6325 µM) of the same molecule?
**A.** 0.401

**Q.** And the relative viability ([20]; first compound 2 µM)?
**A.** 0.235

**Q.** And the relative viability ([21]; first compound 0.02 µM)?
**A.** 0.793

**Q.** What about the relative viability ([21]; first compound 0.2 µM) of the same molecule?
**A.** 0.718

**Q.** And the relative viability ([21]; first compound 0.6325 µM)?
**A.** 0.61

**Q.** What about the relative viability ([21]; first compound 2 µM) of the same molecule?
**A.** 0.436

**Q.** And the relative viability ([22]; first compound 0.02 µM)?
**A.** 0.575

**Q.** And the relative viability ([22]; first compound 0.2 µM)?
**A.** 0.569

**Q.** What about the relative viability ([22]; first compound 0.6325 µM) of the same molecule?
**A.** 0.546

**Q.** What about the relative viability ([22]; first compound 2 µM) of the same molecule?
**A.** 0.52

**Q.** And the relative viability ([23]; first compound 0.02 µM)?
**A.** 0.503

**Q.** What about the relative viability ([23]; first compound 0.6325 µM) of the same molecule?
**A.** 0.453

**Q.** And the relative viability ([23]; first compound 2 µM)?
**A.** 0.339
